Each structure is given as a SMILES string.

The test system of experiment [1] is normal epithelial cells in the large intestine (HCoEpiC). Briefly: Amount of secreted EVs per cell by ExoScreen in normal cells. Type of experiment: cell-based. The protocol: (§1) EV detection was performed using an AlphaLISA reagent (Perkin Elmer) composed of AlphaScreen streptavidin-coated donor beads (6760002), AlphaLISA unconjugated acceptor beads (6062011), and an AlphaLISA universal buffer (AL001F), a 96-well half-area white plate (6005560, Perkin Elmer), and a detection device EnSpire Alpha 2300 Mutilabel plate reader (Perkin Elmer). Specifically, the EV detection was performed as follows. Each well of the plate was filled with 5 μL of EVs or 10 μL of CM (cell culture supernatant), 10 μL of a 5 nmol/L biotinylated antibody solution prepared using the above-described buffer, and 10 μL of 50 µg/mL AlphaLISA acceptor bead-conjugated antibody. For detection of CD9/CD9 double-positive EVs, a biotinylated anti-human CD9 antibody and an anti-human CD9 antibody conjugated with AlphaLISA acceptor beads were used. For detection of CD9/CD63 double-positive EVs, a biotinylated anti-human CD9 antibody and an anti-human CD63 antibody conjugated with AlphaLISA acceptor beads were used. For detection of CD63/CD63 double-positive EVs, a biotinylated anti-human CD63 antibody and an anti-human CD63 antibody conjugated with AlphaLISA acceptor beads were used. The plate was incubated at 37° C. for 1 hour, and then, 25 μL of 80 μg/mL AlphaScreen streptavidin-coated donor beads were added thereto. The plate was incubated at 37° C. for another 30 minutes in the dark. Next, luminescence in the wells of the plate was measured using the detection device with the excitation wavelength set to 680 nm and the emission detection wavelength set to 615 nm. The antibodies used were both commercially available products, namely, a mouse monoclonal anti-human CD9 (Clone 12A12) and a CD63 antibody (Clone 8A12) (both available from Cosmo Bio).
(§2) The present example examined the effect of NCT-503 on normal cells to provide indirect data showing that NCT-503 reduced EV secretion specific to cancer cells. […] Thereafter, the cell viability was determined and also the amount of secreted EVs was measured by the ExoScreen method.
(§3) Specifically, the test was performed in the following manner. […] Then, the medium in the wells was collected and the cells in the wells were counted. As a control, the same procedures as described above were performed except that DMSO was added instead of the inhibitor solution, and the cells in the wells were counted. Then, the cell viability was calculated assuming that the number of cells in the NCT-free (0 M) medium (i.e., DMSO-containing medium) of the control was a relative value of 1. Also, the amount of secreted EVs was measured by ExoScreen.

Experiment [2] concerns normal epithelial cells in the lung (HBEC). The experiment is described as above. Type of experiment: cell-based. How it is done: as §1, §2, §3
Experiment [3] has as its system lung cancer cells A549. As to the kind of experiment: CD63 immunofluorescence / coimmunostaining (intracellular EV accumulation). The conditions noted are these: A549, 2.5 μmol/L, 48 hours, serine-deficient medium, compared with NC (DMSO). Type of experiment: cell-based, human. How it is done: (§4) Colorectal cancer cells HCT116 and lung cancer cells A549 were transfected with siRNA (siPSAT1) in the same manner as in the item (2) in Example A1, and EV biogenesis after PSAT1 silencing was examined. For the respective silenced transformants, CD63 and PSAT1 were examined by immunofluorescence.
(§5) Further, coimmunostaining of the EV marker CD63 and also an early endosome marker EEA1 or a late endosome marker Rab7 was conducted for the PSAT1-silenced transformants. As a result, no overlap was observed between EEA1 and CD63 in either the PSAT1-silenced transformants or the negative control transformants. […] On this account, the CD63 single-positive area was measured based on the intensity. […] This confirmed that EVs had accumulated in the cells.
(§6) Specifically, the test was performed in the following manner. Colorectal cancer cells HCT116 and lung cancer cells A549 were each seeded in a 6-well plate at 1.5×10^5 cells/well (Day 0), and incubated for 24 hours in a medium (DMEM with 10% FBS, 1×anti-anti medium). After the incubation (Day 1), the above-described medium was removed, and thereafter, a serine-deficient medium and an inhibitor solution were added to the wells. The inhibitor solution was prepared by dissolving NCT-503 in DMSO, and the concentration of the inhibitor per well was set to 2.5 μmol/L. Then, after another 48 hours of incubation (Day 3), the medium in the wells was collected and the cells in the wells were counted. As negative controls (NC), the test was performed in the same manner, except that DMSO was added instead of the inhibitor solution.
(§7) EVs accumulated in the cells were analyzed in the following manner. Specifically, the collected cells were immunostained, the CD63 single-positive area was measured based on the fluorescence intensity, and the fluorescence intensity measured in the area was divided by the number of nuclei to determine the amount of EVs accumulated in each cell. On the other hand, secreted EVs were collected from the collected medium and then subjected to the NTA. In the NTA, the amount of secreted EVs was determined as a relative value calculated assuming that the amount of the secreted EVs in the negative control was 1.

Experiment [4] deals with colorectal cancer cells HCT116. Described as above. Type of experiment: cell-based, human. The conditions noted are these: HCT116, 2.5 μmol/L, 48 hours, serine-deficient medium, compared with NC (DMSO). The protocol:
as §4, §5, §6, §7

`Cc1cc(C)nc(NC(=S)N2CCN(Cc3ccc(C(F)(F)F)cc3)CC2)c1` [NCT-503]: the “difference in amount of secreted EVs, NCT-503-containing medium vs DMSO-containing medium without NCT” value in experiment [1] (normal epithelial cells in the large intestine, 0.15625 to 2.5 μmol/L) was “almost no difference”; in experiment [2] (normal epithelial cells in the lung, 0.15625 to 2.5 μmol/L), “almost no difference”. Besides, the “relative value of the amount of secreted EVs with respect to DMSO-containing medium without NCT (0 µM)” value in experiment [1] (normal epithelium cells in the large intestine, NCT-503 2.5 mol/L (so in the source), 48 hours, ExoScreen) turned out to be 0.98; in experiment [2] (normal epithelium cells in the lung, NCT-503 2.5 mol/L (so in the source), 48 hours, ExoScreen), 1.17. In addition, the “amount of EVs accumulated in each cell (CD63 single-positive fluorescence intensity / number of nuclei)” value in experiment [3] and in experiment [4] was “larger” throughout.

Values taken from patent publication US20260218197A1, “EXTRACELLULAR VESICLE SECRETION REDUCING AGENT FOR REDUCING EXTRACELLULAR VESICLE SECRETION, AND USE OF THE SAME” (THEORIA SCIENCE INC., priority 2020, published 2026).
